Reference: patent US4307104A, “Guanidine compounds” (Smith Kline & French Laboratories Limited, priority 1979, dated 1981)

Tested on: histamine H2 -receptors
Assay: inhibition of histamine-stimulated secretion of gastric acid from the lumen-perfused stomachs of rats anaesthetised with urethane
Assay type: in vivo
Details: i.v., lumen-perfused stomach of urethane-anaesthetised rats

N=C(N)Nc1nc(CSCCNC2=C([N+](=O)[O-])CCCN2)cs1 [Example 1, 2-[2-(2-Guanidino-4-thiazolylmethylthio)ethylamino-]-3-nitro-1,4,5,6-tetrahydropyridine]
dose causing 50% inhibition of maximal acid secretion: less than 0.1 micromole kh^-1
